Reference: patent publication US5057494A, “Method for preventing tissue damage after an ischemic episode” (Ethicon, Inc., priority 1988, dated 1991)

Legend:
[1] = test system: hippocampal pyramidal cell layer; experiment: Blinded histological evaluation of brain sections after 5-min bilateral carotid occlusion; format: in vivo, gerbil; conditions: for Protection of the animal's neurons (in words): as monitored by motor activity or histology; for Average Histopathology Score: Example 2, saline 4.8, scale 0-5 of Table 4
From the text: (§1) The present example is based on a surgical procedure that has been developed to study the effects of cerebral or brain ischemia in the unanesthetized gerbil. The methodology is based upon the surgical isolation and instrumentation of both common carotid arteries. A loop of dental floss is placed around each carotid artery and passed through a double lumen catheter material; this allows for later occlusion of the carotid arteries and their release in the unanesthetized subject. […] Behavioral changes consequent to stroke are useful and pertinent as a means of evaluation in this model of nonlethal transient ischemia Emotional lability, depression, agitation and motor and cognitive deficits are common after stroke. The psychomotor depression noted immediately after transient ischemia in this gerbil model mimics the clinical situation in humans. Spontaneous motor activity is an indicator of aroused state and is a behavior commonly measured in psychopharmacology research. Changes in locomotor activity have been shown in extensive pharmacological and toxicology studies to provide reliable, reproducible first-assessment data about neurological status. The details of this method are more fully set forth in Chandler, M.J. et al., J. Pharm. Meth. 14:137-146 (1985).
(§2) Ligatures externalized through double lumen catheters were surgically placed around both common carotid arteries of mature (50-60 gram) gerbils. After allowing recovery from surgery, conscious gerbils were subjected to a 5 minute period of bilateral carotid occlusion by tightening the ligatures. Spontaneous motor activity was then periodically monitered over seven days followed by animal sacrifice and blinded histological evaluation of brain sections. EGF (0.1 and 1.0 mg/kg) and FGF (0.1, 1.0 and 10.0 mg/kg) were given intraperitoneally in saline at one hour pre-occlusion and one, three, five and seven hours post-occlusion. Two control groups (occluded and non-occluded) received saline by the same route.
(§3) Gerbils were treated as in Example 1, except that dosing was at 1,3,5 and 7 hours post-occlusion only.

gerbils = experiment: Spontaneous locomotor activity after 5-min bilateral carotid occlusion (photocell activity chambers); format: in vivo, gerbil; conditions: for Motor Activity at 24 hours: Example 2, saline 3028; for Spontaneous locomotor activity: Table 1, mean of 6 gerbils
From the text: as §1, §2
Spontaneous locomotor activity was recorded using photocell activity chambers. The chambers were two-foot circular arenas that were individually housed in sound attenuating compartments ventilated by a fan. Activity was monitored by two orthogonally placed photocell circuits. A single break of the photocell light beam by the animal's movements defined an activity count counts were monitored and recorded as a function of time. The data in Tables 1 and 2 represent activity counts.
as §3

[2] = 0.01 mg/kg i.p. at 1,3,5,7 h post-occlusion only
[3] = 0.1 mg/kg i.p. at 1,3,5,7 h post-occlusion only
[4] = 1 mg/kg i.p. at 1,3,5,7 h post-occlusion only

## EGF: epidermal growth factor; polypeptide growth factor (human EGF is fifty-three amino acids); source of tested material not stated
[1]; 0.1 mg/kg i.p. pre- and post-occlusion
  Protection of the animal's neurons (in words): modest protection
[1]; 1 mg/kg i.p. pre- and post-occlusion
  Protection of the animal's neurons (in words): almost total protection
[1]; [2]
  Average Histopathology Score: 4.7
[1]; [3]
  Average Histopathology Score: 1.5
[1]; [4]
  Average Histopathology Score: 2.2
gerbils; [2]
  Motor Activity at 24 hours: 1891
gerbils; [3]
  Motor Activity at 24 hours: 1051
gerbils; [4]
  Motor Activity at 24 hours: 715
gerbils; 0.1 mg/kg i.p. at 1 h pre- and 1,3,5,7 h post-occlusion, 6 h after ischemia, saline post-ischemic 2366, non-ischemic 485
  Spontaneous locomotor activity: 1511 activity counts
gerbils; 0.1 mg/kg i.p. at 1 h pre- and 1,3,5,7 h post-occlusion, 24 h after ischemia, saline post-ischemic 1960, non-ischemic 529
  Spontaneous locomotor activity: 658 activity counts
gerbils; 0.1 mg/kg i.p. at 1 h pre- and 1,3,5,7 h post-occlusion, 48 h after ischemia, saline post-ischemic 2145, non-ischemic 613
  Spontaneous locomotor activity: 687 activity counts
gerbils; 0.1 mg/kg i.p. at 1 h pre- and 1,3,5,7 h post-occlusion, 72 h after ischemia, saline post-ischemic 1011, non-ischemic 579
  Spontaneous locomotor activity: 715 activity counts
gerbils; 0.1 mg/kg i.p. at 1 h pre- and 1,3,5,7 h post-occlusion, 96 h after ischemia, saline post-ischemic 895, non-ischemic 493
  Spontaneous locomotor activity: 626 activity counts
gerbils; 0.1 mg/kg i.p. at 1 h pre- and 1,3,5,7 h post-occlusion, 120 h after ischemia, saline post-ischemic 486, non-ischemic 463
  Spontaneous locomotor activity: 511 activity counts
gerbils; 1.0 mg/kg i.p. at 1 h pre- and 1,3,5,7 h post-occlusion, 6 h after ischemia, saline post-ischemic 2366, non-ischemic 485
  Spontaneous locomotor activity: 705 activity counts
gerbils; 1.0 mg/kg i.p. at 1 h pre- and 1,3,5,7 h post-occlusion, 24 h after ischemia, saline post-ischemic 1960, non-ischemic 529
  Spontaneous locomotor activity: 766 activity counts
gerbils; 1.0 mg/kg i.p. at 1 h pre- and 1,3,5,7 h post-occlusion, 48 h after ischemia, saline post-ischemic 2145, non-ischemic 613
  Spontaneous locomotor activity: 588 activity counts
gerbils; 1.0 mg/kg i.p. at 1 h pre- and 1,3,5,7 h post-occlusion, 72 h after ischemia, saline post-ischemic 1011, non-ischemic 579
  Spontaneous locomotor activity: 463 activity counts
gerbils; 1.0 mg/kg i.p. at 1 h pre- and 1,3,5,7 h post-occlusion, 96 h after ischemia, saline post-ischemic 895, non-ischemic 493
  Spontaneous locomotor activity: 445 activity counts
gerbils; 1.0 mg/kg i.p. at 1 h pre- and 1,3,5,7 h post-occlusion, 120 h after ischemia, saline post-ischemic 486, non-ischemic 463
  Spontaneous locomotor activity: 314 activity counts
